Measurements published in patent US6080746A, “Methods and compositions for the prophylaxis and treatment of cytomegalovirus infections” (priority 1991, dated 2000).
≈ marks a conversion by molar mass, not a printed value.

What was measured:
cytomegalovirus = conditions: cited from earlier work; for treatment of cytomegalovirus retinitis: Rosecan et al. 1986 / reported
[1] = tested on: human cytomegalovirus (strain AD 169); experiment: Inhibition of human cytomegalovirus in MRC5 cells by plaque reduction assay (reduction of CPE, MIC50; Table 1); type: cell-based; conditions: Human betaherpesvirus 5, MRC5, 0 h, read-out: Reduction (%) of CPE at Time of Harvest
From the text: (§1) In each case, drug treatment began 0 hr. postinfection.

[2] = tested on: human cytomegalovirus (strain AD 169); experiment: CMV yield in MRC5 cells (Table 1); type: cell-based; conditions: virus control 5.5 (DHPG 5.3)
From the text: as §1

[3] = tested on: human diploid embryonic lung cells (MRC5); experiment: Drug cytotoxicity (gross morphology) in MRC5 cells (Table 1)
From the text: Also evaluated under the same conditions were prior art drugs Ara-A and ganciclovir (DHPG). In each case, drug treatment began 0 hr. postinfection.

human CMV = experiment: Plaque reduction assay against human CMV (ED50); type: cell-based
HCMV = experiment: Virus yield-reduction assay, combination with papaverine on HCMV replication in MRC5 cells (Table 3); type: cell-based, human CMV; conditions: (±)-2'-CDG 0
From the text: The following results were obtained in testing mixtures of racemic 2'-CdG and papaverine under the same conditions:
Effect of Combination Treatment^a With Papaverine and
(±)-2'-CDG and on HCMV Replication in MRC5 Cells
(Virus Yield-Reduction Assay)
^a Drug treatment began immediately following the virus adsorption

Nc1nc2c(ncn2COCCO)c(=O)[nH]1 [acyclovir]
activity against CMV retinitis (cytomegalovirus; CMV retinitis, reported): ineffective
treatment of cytomegalovirus retinitis (cytomegalovirus): unsuccessful
activity against established systemic CMV infections (cytomegalovirus; established systemic CMV infections, reported): ineffective

Nc1ncnc2c1ncn2[C@@H]1O[C@H](CO)[C@@H](O)[C@@H]1O [Ara-A, reference compound]
inhibition at 0.32 µg/mL [1]: 0%
inhibition at 1 µg/mL [1]: 0%
inhibition at 3.2 µg/mL [1]: 5%
inhibition at 10 µg/mL [1]: 90%
inhibition at 32 µg/mL [1]: > 95%
inhibition at 100 µg/mL [1]: 100%
CMV Yield ([2]; 0.32 μg/ml): 5.2 log10 CCID50 /ml
CMV Yield ([2]; 1.0 μg/ml): 4.9 log10 CCID50 /ml
CMV Yield ([2]; 3.2 μg/ml): 4.7 log10 CCID50 /ml
CMV Yield ([2]; 10 μg/ml): 3.4 log10 CCID50 /ml
CMV Yield ([2]; 32 μg/ml): 0.6 log10 CCID50 /ml
CMV Yield ([2]; 100 μg/ml): 0 log10 CCID50 /ml
Drug Cytotoxicity (gross morphology) ([3]; 0.32 μg/ml): 0
Drug Cytotoxicity (gross morphology) ([3]; 1.0 μg/ml): 0
Drug Cytotoxicity (gross morphology) ([3]; 3.2 μg/ml): 0
Drug Cytotoxicity (gross morphology) ([3]; 10 μg/ml): 0
treatment of cytomegalovirus retinitis (cytomegalovirus): unsuccessful

CCCCC(=O)OC[C@H]1O[C@@H](n2cnc3c(=O)[nH]c(N)nc32)C[C@@H]1O [D-2'-deoxyguanosine-5'-0-valerate]
ED50 (human CMV): 0.09 µg/mL (≈ 0.256 µM)

COc1ccc(Cc2nccc3cc(OC)c(OC)cc23)cc1OC [Papaverine, reference compound]
Reduction in CMV Yield (HCMV; papaverine (DHPG) 1.0 μM): 0 Log10 PFU/ML
Reduction in CMV Yield (HCMV; papaverine (DHPG) 3.2 μM): 0.2 Log10 PFU/ML
Reduction in CMV Yield (HCMV; papaverine (DHPG) 10.0 μM): 0.6 Log10 PFU/ML
Reduction in CMV Yield (HCMV; papaverine (DHPG) 32.0 μM): 1.4 Log10 PFU/ML
